Measurements as given in ChEMBL document CHEMBL3108727, “Lupane triterpenoids from the stems of Euonymus carnosus” (J Nat Prod, 2014).
pIC50: −log10 of the molar value.

Key:
[1] = Cytotoxicity against human HCT8 cells after 96 hrs by MTT assay; type: functional, cell-based; details: HCT-8, 96 h
A549 = test: Cytotoxicity against human A549 cells after 96 hrs by MTT assay; type: functional, cell-based; details: A549, 96 h
[2] = Antiinflammatory activity in mouse BV2 cells assessed as inhibition of LPS-induced nitric oxide production after 24 hrs by Griess method; type: functional, cell-based; details: BV-2, 24 h
[3] = Cytotoxicity against human Bel7402 cells after 96 hrs by MTT assay; type: functional, cell-based; details: Bel-7402, 96 h
A2780 = test: Cytotoxicity against human A2780 cells after 96 hrs by MTT assay; type: functional, cell-based; details: A2780, 96 h
[4] = Cytotoxicity against human BGC823 cells after 96 hrs by MTT assay; type: functional, cell-based; details: BGC-823, 96 h
[5] = Cytotoxicity against mouse BV2 cells assessed as cell viability by MTT assay relative to LPS-treated control; type: cell-based, BV-2; design: concentration or dose not given beside the values; details: read-out: Activity

SMILES	pIC50 [2]	pIC50 [1]	pIC50 (A549)	pIC50 [3]	pIC50 (A2780)	pIC50 [4]	viability [5]
CC(=O)[C@@H]1CC[C@]2(C)CC[C@]3(C)[C@H](CC[C@@H]4[C@@]5(C)CC[C@@H](O)C(C)(C)[C@@H]5CC[C@]43C)[C@@H]12	< 5.00	< 5.00	< 5.00	< 5.00	< 5.00	< 5.00	
CC(=O)[C@@H]1CC[C@]2(C)CC[C@]3(C)[C@H](CC[C@@H]4[C@@]5(C)CC[C@H](O)C(C)(C)[C@@H]5CC[C@]43C)[C@@H]12	5.22	< 5.00	< 5.00	< 5.00	< 5.00	< 5.00	93.5%
C=C(CO)[C@@H]1CC[C@]2(C)C[C@H](O)[C@]3(C)[C@H](CC[C@@H]4[C@@]5(C)CCC(=O)C(C)(C)[C@@H]5CC[C@]43C)[C@@H]12	< 5.00	< 5.00	< 5.00	< 5.00	< 5.00	< 5.00	
C=C(C=O)[C@@H]1CC[C@]2(C)CC[C@]3(C)[C@H](CC[C@@H]4[C@@]5(C)CC[C@@H](O)C(C)(C)[C@@H]5CC[C@]43C)[C@@H]12	< 5.00	< 5.00	< 5.00	< 5.00	< 5.00	< 5.00	
C=C(CO)[C@@H]1CC[C@]2(CO)CC[C@]3(C)[C@H](CC[C@@H]4[C@@]5(C)CC[C@@H](OC(C)=O)C(C)(C)[C@@H]5CC[C@]43C)[C@@H]12	< 5.00	5.49	5.47	5.56	< 5.00	5.39	
CC(=O)C1=C2[C@H]3CC[C@@H]4[C@@]5(C)CC[C@@H](O)C(C)(C)[C@@H]5CC[C@@]4(C)[C@]3(C)CC[C@@]2(C)CC1=O	< 5.00	< 5.00	< 5.00	< 5.00	< 5.00	< 5.00	
C=C(C)[C@@H]1CC[C@]2(C)CC[C@]3(C)[C@H](CC[C@@H]4[C@@]5(C)CC[C@@H](O)C(C)(C)[C@@H]5CC[C@]43C)[C@@H]12	< 5.00	< 5.00	< 5.00	< 5.00	< 5.00	< 5.00	
C=C(CO)[C@@H]1CC[C@]2(C)CC[C@]3(C)[C@H](CC[C@@H]4[C@@]5(C)CCC(=O)C(C)(C)[C@@H]5CC[C@]43C)[C@@H]12	< 5.00	< 5.00	< 5.00	< 5.00	< 5.00	< 5.00	
C=C(CO)[C@@H]1CC[C@]2(C)CC[C@]3(C)[C@H](CC[C@@H]4[C@@]5(C)CC[C@H](O)C(C)(C)[C@@H]5CC[C@]43C)[C@@H]12	< 5.00	< 5.00	< 5.00	< 5.00	< 5.00	< 5.00	
CC(=O)O[C@@H]1CC[C@]2(C)[C@H]3CC[C@@H]4[C@H]5[C@H](C(C)=O)CC[C@]5(CO)CC[C@@]4(C)[C@]3(C)CC[C@H]2C1(C)C (relative stereo)	< 5.00	< 5.00	< 5.00	< 5.00	< 5.00	< 5.00	
CC(=O)[C@@H]1CC[C@]2(CO)CC[C@]3(C)[C@H](CC[C@@H]4[C@@]5(C)CC[C@@H](O)C(C)(C)[C@@H]5CC[C@]43C)[C@@H]12 (relative stereo)	< 5.00	< 5.00	< 5.00	< 5.00	< 5.00	< 5.00	
CC(=O)OC[C@]12CC[C@@H](C(C)=O)[C@@H]1[C@H]1CC[C@@H]3[C@@]4(C)CC[C@@H](O)C(C)(C)[C@@H]4CC[C@@]3(C)[C@]1(C)CC2 (relative stereo)	< 5.00	< 5.00	< 5.00	< 5.00	< 5.00	< 5.00	
C=C(C)[C@@H]1CC[C@]2(CO)CC[C@]3(C)[C@H](CC[C@@H]4[C@@]5(C)CC[C@@H](O)C(C)(C)[C@@H]5CC[C@]43C)[C@@H]12 [3-EPI-BETULIN]	5.60	< 5.00	< 5.00	< 5.00	< 5.00	< 5.00	89.3%
C=C(C)[C@@H]1CC[C@]2(CO)CC[C@]3(C)[C@H](CC[C@@H]4[C@@]5(C)CC[C@H](O)C(C)(C)[C@@H]5CC[C@]43C)[C@@H]12 [BETULIN]	< 5.00	< 5.00	< 5.00	< 5.00	< 5.00	< 5.00	
C=C(C)[C@@H]1CC[C@]2(CO)CC[C@]3(C)[C@H](CC[C@@H]4[C@@]5(C)CCC(=O)C(C)(C)[C@@H]5CC[C@]43C)[C@@H]12 [BETULONE]	< 5.00	< 5.00	< 5.00	< 5.00	< 5.00	< 5.00	
C=C(C)[C@@H]1CC[C@]2(C)CC[C@]3(C)[C@H](CC[C@@H]4[C@@]5(C)CC[C@H](O)C(C)(C)[C@@H]5CC[C@]43C)[C@@H]12 [LUPEOL]	< 5.00	< 5.00	< 5.00	< 5.00	< 5.00	< 5.00	
CC(=O)O[C@H]1C(=O)[C@@]2(C)[C@H]([C@H](OC(=O)c3ccccc3)[C@]3(O)C[C@H](OC(=O)[C@H](O)[C@@H](NC(=O)c4ccccc4)c4ccccc4)C(C)=C1C3(C)C)[C@]1(OC(C)=O)CO[C@@H]1C[C@@H]2O [PACLITAXEL]			7.49	7.96	6.23	7.59	

Now from value to compound, other results behind:

pIC50 [2]	SMILES	pIC50 [1]	pIC50 (A549)	pIC50 [3]	pIC50 (A2780)	pIC50 [4]	viability [5]
< 5.00	C=C(CO)[C@@H]1CC[C@]2(C)CC[C@]3(C)[C@H](CC[C@@H]4[C@@]5(C)CC[C@@H](O)C(C)(C)[C@@H]5CC[C@]43C)[C@@H]12	< 5.00	< 5.00	< 5.00	< 5.00	< 5.00	
5.13	C[C@H](C(=O)O)[C@@H]1CC[C@]2(C)CC[C@]3(C)[C@H](CC[C@@H]4[C@@]5(C)CC[C@@H](O)C(C)(C)[C@@H]5CC[C@]43C)[C@@H]12	< 5.00	< 5.00	< 5.00	< 5.00	< 5.00	87.3%
5.13	CC(=O)O[C@@H]1CC[C@]2(C)[C@H]3CC[C@@H]4[C@H]5[C@H]([C@H](C)C(=O)O)CC[C@]5(C)CC[C@@]4(C)[C@]3(C)CC[C@H]2C1(C)C	< 5.00	< 5.00	< 5.00	< 5.00	< 5.00	98.5%
< 5.00	C[C@H](C(=O)O)[C@@H]1CC[C@]2(C)CC[C@]3(C)[C@H](CC[C@@H]4[C@@]5(C)CCC(=O)C(C)(C)[C@@H]5CC[C@]43C)[C@@H]12	< 5.00	< 5.00	< 5.00	< 5.00	< 5.00	
5.11	C[C@@H](C(=O)O)[C@@H]1CC[C@]2(C)CC[C@]3(C)[C@H](CC[C@@H]4[C@@]5(C)CC[C@@H](O)C(C)(C)[C@@H]5CC[C@]43C)[C@@H]12	< 5.00	< 5.00	< 5.00	< 5.00	< 5.00	96.8%
5.46	C[C@@H](O)[C@@H]1CC[C@]2(C)CC[C@]3(C)[C@H](CC[C@@H]4[C@@]5(C)CC[C@@H](O)C(C)(C)[C@@H]5CC[C@]43C)[C@@H]12	< 5.00	< 5.00	< 5.00	< 5.00	< 5.00	94.2%
< 5.00	C[C@@H](CO)[C@@H]1CC[C@]2(C)CC[C@]3(C)[C@H](CC[C@@H]4[C@@]5(C)CCC(=O)C(C)(C)[C@@H]5C[C@H](O)[C@]43C)[C@@H]12	< 5.00	< 5.00	< 5.00	< 5.00	< 5.00	
< 5.00	C[C@@H](CO)[C@@H]1CC[C@]2(C)C[C@H](O)[C@]3(C)[C@H](CC[C@@H]4[C@@]5(C)CCC(=O)C(C)(C)[C@@H]5CC[C@]43C)[C@@H]12	< 5.00	< 5.00	< 5.00	< 5.00	< 5.00	
< 5.00	C=C(CO)[C@@H]1CC[C@]2(C)CC[C@]3(C)[C@H](CC[C@@H]4[C@@]5(C)CCC(=O)C(C)(C)[C@@H]5C[C@H](O)[C@]43C)[C@@H]12	< 5.00	< 5.00	< 5.00	< 5.00	< 5.00	
6.28	COc1cc(/C=C/C(=O)CC(=O)/C=C/c2ccc(O)c(OC)c2)ccc1O [CURCUMIN]						93.3%
